# According to patent US20240075093A1, “COMPOSITIONS AND METHODS OF TREATING A PI3K MEDIATED DISEASE” (VIRGINIA TECH INTELLECTUAL PROPERTIES, INC., priority 2020, published 2024):
# Tests used:
# [1] = tested on: PI3K/AKT signaling in SF295 cells; assay: immunoblotting of PI3K/AKT signaling in SF295 cells; assay type: cell-based
# SF295 cells = assay: wound-healing (migration) assay; assay type: cell-based; details: 8 μM, 24 hours
# Procedure: (§1) (FIG. 8A) Wound-healing assay. Cells were plated confluently and then treated with PI3K isoform-selective inhibitors at 8 μM for 24 hours. Cells were imaged at 0- and 24-hour time point. Images of 24-hour time point are shown. Scale bar: […]. (FIG. 8B-8D) Quantification of migration distance. Images from three different areas were analyzed using Image J. Migration distances were obtained by subtracting 24-hour measurements with those of 0-hour.
# LN229/GSCs = assay: wound-healing (migration) assay; assay type: cell-based; details: 8 μM, 24 hours
# Procedure: as §1
# p110b = p110b (Homo sapiens, UniProt P42338); assay: p110b activity ELISA (cell-free kinase assay); assay type: biochemical
# Chain of p110b (P42338 whole entry): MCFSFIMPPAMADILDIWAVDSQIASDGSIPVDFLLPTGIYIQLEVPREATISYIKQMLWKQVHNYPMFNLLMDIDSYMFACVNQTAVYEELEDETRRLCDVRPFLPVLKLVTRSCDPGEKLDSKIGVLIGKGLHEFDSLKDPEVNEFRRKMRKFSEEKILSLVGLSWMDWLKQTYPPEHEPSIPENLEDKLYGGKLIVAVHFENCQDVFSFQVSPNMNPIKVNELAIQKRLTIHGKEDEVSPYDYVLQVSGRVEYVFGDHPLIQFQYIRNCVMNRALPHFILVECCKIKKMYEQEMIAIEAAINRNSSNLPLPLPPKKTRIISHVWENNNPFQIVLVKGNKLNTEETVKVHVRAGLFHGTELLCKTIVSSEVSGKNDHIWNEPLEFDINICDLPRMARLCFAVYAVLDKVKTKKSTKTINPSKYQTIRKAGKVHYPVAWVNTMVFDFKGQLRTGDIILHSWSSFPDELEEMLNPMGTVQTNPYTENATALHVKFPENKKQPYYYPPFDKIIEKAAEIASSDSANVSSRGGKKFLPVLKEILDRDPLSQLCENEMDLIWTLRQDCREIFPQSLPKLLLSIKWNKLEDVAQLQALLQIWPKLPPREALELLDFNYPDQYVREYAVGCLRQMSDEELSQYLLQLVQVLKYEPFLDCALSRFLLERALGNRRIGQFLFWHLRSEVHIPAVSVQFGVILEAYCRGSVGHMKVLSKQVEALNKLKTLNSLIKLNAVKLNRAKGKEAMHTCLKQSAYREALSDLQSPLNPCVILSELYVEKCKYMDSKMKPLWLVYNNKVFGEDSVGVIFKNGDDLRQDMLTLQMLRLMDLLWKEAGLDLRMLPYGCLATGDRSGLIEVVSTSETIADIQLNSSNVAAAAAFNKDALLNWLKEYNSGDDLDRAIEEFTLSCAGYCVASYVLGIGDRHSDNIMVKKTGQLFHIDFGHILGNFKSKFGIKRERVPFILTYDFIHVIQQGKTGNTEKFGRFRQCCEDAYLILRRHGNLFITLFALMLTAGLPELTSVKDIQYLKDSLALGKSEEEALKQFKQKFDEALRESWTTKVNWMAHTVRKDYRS
# Description: The activity of the p110b PI3K catalytic subunit was monitored via ELISA upon increasing doses of Ante-Selectide-18.
# Relative activity is the ratio of respective treated groups to their non-treated controls.
# (FIG. 51A) 3D of a p110β/p85α complex determined by SWISS-MODEL and Cluspro. (FIG. 51B) Protein sequences were aligned using COBALT. C2 domains (top) are show. Red bars: same residues; Grey bars: different residues; Red lines: missing residues. […] in p110β C2 (bottom) is shown and termed as 018. Docking of p110β and p85α (FIG. 51C) or p110α and p85α (FIG. 51D) was done by SWISS-MODEL, Cluspro, and Chimera. The 018 motif is labeled in magenta. Deletion of β18 motif (FIG. 51E) changed the 3D shapes of p110β/p85 (FIG. 51C). (FIG. 51F) p110β cell-free kinase assay. An enzyme-linked immunosorbent assay (ELISA) was used to measure levels of lipids PIP2/PIP3. (FIG. 51G) Effect of PI3K inhibitors on p110s using ELISA. p110β (FIG. 51H) or p110α (FIG. 51I) was docked with Selectide-18-bound p85α using Cluspro/Chimera.
# Applicant also included a control scramble peptide containing the antennapedia sequence followed by the amino acid sequence of Ante-Selectide-18 randomly scrambled. […] Applicant reports that this drug is not effective at inhibiting the kinase activity of p110b or other PI3K subunits at 100 nM, showing the promise of the Ante-Selectide-18 peptide as a potent selective p110b inhibitor at a low dose.
compound,measurement,setting,value
Cc1cc(C(C)Nc2ccccc2)c2nc(N3CCOCC3)cc(=O)n2c1 (stereo not shown) [TGX-221],AKT and RAC1/CDC42 activity,"[1]; 8 μM TGX-221, 24 hours",inactivated
same,protein levels of MMP2,"[1]; 8 μM TGX-221, 24 hours",not
same,protein levels of MMP9,"[1]; 8 μM TGX-221, 24 hours",decreased protein levels
same,"BIM-EL, BIM-L, BIM-S (apoptotic forms of BIM)","[1]; 25 μM TGX-221, 96 hours",remarkable increase
same,cleaved caspase 3 (c-CASP3),"[1]; 25 μM TGX-221, 96 hours",remarkable increase
same,levels of pFOXO3T32,"[1]; 25 μM TGX-221, 96 hours",significantly decreased
same,cell migration,SF295 cells,inhibited the migration
same,cell migration,LN229/GSCs,inhibited the migration
same,activity of p110β,"p110b; 10 nM TGX-221, ELISA",didn't inactivate p110β
same,activity of p110b,"p110b; 100 nM, ELISA, isolated protein subunit",not effective
